Test: Antagonist activity at CXCR3 assessed as inhibition of ITAC-mediated cell migration in presence of 100% human serum

## CCS(=O)(=O)CCN(C(=O)Cc1ccc(C(F)(F)F)c(F)c1)[C@H](C)c1nc2ncccc2c(=O)n1-c1ccc(C#N)cc1 [(R)-N-(1-(3-(4-cyanophenyl)-4-oxo-3,4-dihydropyrido[2,3-d]pyrimidin-2-yl)ethyl)-N-(2-(ethylsulfonyl)ethyl)-2-(3-fluoro-4-(trifluoromethyl)phenyl)acetamide]
  IC50: 0.047 µM

## CCS(=O)(=O)CCN(C(=O)Cc1ccc(F)c(C(F)(F)F)c1)[C@H](C)c1nc2ncccc2c(=O)n1-c1ccc(Cl)cc1
  IC50: 0.102 µM

## CCS(=O)(=O)CCN(C(=O)Cc1ccc(C(F)(F)F)c(F)c1)[C@H](C)c1nc2ncccc2c(=O)n1-c1ccc(F)cc1
  IC50: 0.292 µM

## C[C@H](c1nc2ncccc2c(=O)n1-c1ccc(C#N)cc1)N(CC1CCS(=O)(=O)CC1)C(=O)Cc1ccc(C(F)(F)F)c(F)c1
  IC50: 0.037 µM

## CCS(=O)(=O)CCN(C(=O)Cc1ccc(F)c(C(F)(F)F)c1)[C@H](C)c1nc2ncccc2c(=O)n1-c1ccc(F)cc1
  IC50: 0.254 µM

## C[C@H](c1nc2ccccn2c(=O)c1-c1ccc(C#N)cc1)N(CC1CCS(=O)(=O)CC1)C(=O)Cc1ccc(OC(F)(F)F)cc1
  IC50: 0.06 µM

## C[C@H](c1nc2ncccc2c(=O)n1-c1ccc(C#N)cc1)N(CC1CCS(=O)(=O)CC1)C(=O)Cc1ccc(F)c(C(F)(F)F)c1
  IC50: 0.039 µM

## C[C@H](c1nc2ncccc2c(=O)n1-c1ccc(F)cc1)N(CC1CCS(=O)(=O)CC1)C(=O)Cc1ccc(C(F)(F)F)c(F)c1
  IC50: 0.09 µM

## C[C@H](c1nc2ncccc2c(=O)n1-c1ccc(F)cc1)N(CC1CCS(=O)(=O)CC1)C(=O)Cc1ccc(F)c(C(F)(F)F)c1
  IC50: 0.072 µM

## CCS(=O)(=O)CCN(C(=O)Cc1ccc(C(F)(F)F)c(F)c1)[C@H](C)c1nc2ncccc2c(=O)n1-c1ccc(Cl)cc1
  IC50: 0.107 µM

## C[C@H](c1nc2ncccc2c(=O)n1-c1ccc(Cl)cc1)N(CC1CCS(=O)(=O)CC1)C(=O)Cc1ccc(F)c(C(F)(F)F)c1
  IC50: 0.045 µM

## C[C@H](c1nc2ncccc2c(=O)n1-c1ccc(Cl)cc1)N(CC1CCS(=O)(=O)CC1)C(=O)Cc1ccc(C(F)(F)F)c(F)c1
  IC50: 0.055 µM

Reference: BindingDB's records for doi:10.1016/j.bmcl.2011.10.120 (Amgen, 2011)
